Data reported in patent US20150175599A1, “FAAH Inhibitors” (Ironwood Pharmaceuticals, Inc., priority 2010, published 2015).

How the values were obtained:
[1] = target: T1, human FAAH-1 (Homo sapiens, UniProt O00519); assay: Whole cell anandamide hydrolysis assay (HeLa clone 5c5 transfected with human FAAH-1); format: cell-based; conditions: HeLa clone 5c5 expressing human FAAH-1; read-out: human FAAH whole cell IC50
T1 sequence (O00519 1-579): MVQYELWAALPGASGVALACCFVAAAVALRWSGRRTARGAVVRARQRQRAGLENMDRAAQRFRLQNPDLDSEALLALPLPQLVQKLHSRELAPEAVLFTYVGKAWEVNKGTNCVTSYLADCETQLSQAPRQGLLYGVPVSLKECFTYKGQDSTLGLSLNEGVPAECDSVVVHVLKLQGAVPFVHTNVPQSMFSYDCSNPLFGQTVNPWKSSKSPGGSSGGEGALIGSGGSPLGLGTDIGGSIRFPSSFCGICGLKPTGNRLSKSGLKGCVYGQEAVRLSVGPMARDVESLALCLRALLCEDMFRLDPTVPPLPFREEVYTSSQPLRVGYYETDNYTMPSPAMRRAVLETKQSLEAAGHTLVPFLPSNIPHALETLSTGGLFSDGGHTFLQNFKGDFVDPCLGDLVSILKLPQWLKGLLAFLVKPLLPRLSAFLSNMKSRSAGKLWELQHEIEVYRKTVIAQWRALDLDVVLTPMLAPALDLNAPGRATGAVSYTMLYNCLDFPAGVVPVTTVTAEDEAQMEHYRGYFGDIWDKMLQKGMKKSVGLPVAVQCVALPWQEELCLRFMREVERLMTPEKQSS
Procedure: FAAH activity was assayed in whole cells using methods disclosed previously (Maccarone et al., 1998 J Biol. Chem. 273:32332 and Bisogno et al., 1997 J Biol. Chem. 272:3315). In addition to the cell lines described in Maccarone et al. and Bisogno et al., MCF7 (ATCC designation HTB-22) and T84 (ATCC designation CCL-248) cell lines were also used in these assays.
cDNA expression clone for human FAAH-1 (in pcDNA3 vector) (Genbank Accession U82535; obtained from Benjamin Cravatt, Scripps Research Institute, La Jolla, Calif.) was linearized by digestion with BglII (New England Biolabs) and transfected by calcium phosphate into human HeLa cells (ATCC catalog #CCL-2). […] Following transfection, a stable HeLa-derived clone, designated 5c5, was isolated by single colony purification and expanded and maintained in modified Eagles medium (MEM; VWR catalog #45000-300) containing 10% fetal bovine serum (FBS), 2 mM L-glutamine, and 0.5 mg/mL G-418 (Sigma catalog #G5013).
Clone 5c5 (50,000 cells in 150 μL) was seeded into 96-well plates and incubated overnight (5% CO2, 37° C.). Media was carefully replaced with 180 μL DMEM/F12 medium (VWR catalog #45000-350) containing 15 mM HEPES, pH 7.4 and 0.1% fatty acid free BSA (Sigma catalog #A0281). Then, 2 μL of 100× desired final concentrations of certain exemplary compounds described herein were made up in DMSO, added to wells containing cells, and plates were incubated at 37° C. for 10 min. Next, 20 μL of 5 μM anandamide (Cayman catalog #90050) spiked with 8 μCi of anandamide-(ethanolamine-1-[^3H]) (American Radiolabeled Chemicals, Inc., catalog #ART 626) was added to the cells and the plates were incubated for an additional 15 min at 37° C. The reactions were terminated by chilling the plates on ice and adding 20 μL of 0.5M of potassium phosphate buffer (adjusted to pH 2.1 with phosphoric acid).
The acidified reactions were transferred to 96-well filter plates (0.25 mL capacity/well, 1.2 micron glass fiber pre-filter packed above 0.65 micron pore-size PVDF membrane, Millipore catalog MSFCN6B50) containing 25 μL charcoal (neutral activated carbon, Fisher Scientific catalog C170-500) per well. Prior to the assay, charcoal was measured and loaded onto the plate using an aluminum 96-well column loading device (Millipore catalog MACL09625). The filter plate was assembled over an empty 96-well plate (Costar) using a centrifuge alignment frame (Millipore catalog MACF09604) to allow for collection of the filtrate in the receiver plate. The charcoal glass-fiber filter plates were pre-washed with methanol by centrifugation 650×g for 10 min). Next, 80 μL of water was added to the wells of the pre-washed 96 well charcoal filter plate. Then, 90 μL of the acidified reaction mixture was added to the water in the wells of the charcoal plate. The samples were centrifuged as above. The substrate remained bound to the charcoal, whereas the [^3H]-ethanolamine product formed flowed through and was transferred to the microplates containing scintillation cocktail and quantified in a micro-plate scintillation counter (Perkin-Elmer Microbeta). Control reactions with either no cells or cells treated with DMSO alone were performed in triplicate and used to define background (no cells) and 100% activity (DMSO alone).
Following subtraction of background radioactivity, data were expressed as percent inhibition relative to 100% activity and fit with a nonlinear regression curve using GraphPad Prism Software (GraphPad Software Inc). IC50 values were calculated from the resulting dose-response curves constrained at top and bottom to 100% and 0%, respectively.

[2] = target: T2, FAAH (Homo sapiens, UniProt O00519); assay: FAAH inhibition, human brain membrane homogenate assay; format: biochemical; conditions: human brain homogenate; average activity; read-out: Human brain Extract FAAH IC50
T2 construct: Reactions were initiated by adding 12.5 μg of brain microsome; tissue ABS, Inc; host or cells: human brain cerebral cortex, membrane/microsome fraction pooled from 3 donors
T2 sequence (O00519 1-579): T1 sequence (O00519 1-579)

| SMILES | IC50 [1] | IC50 [2] |
| --- | --- | --- |
| COc1cc(NC(=O)C(=O)c2c(C)n(Cc3ccc(Cl)cn3)c3ccc(C)cc23)ccn1 [Compound 61, 2-(1-((5-chloropyridin-2-yl)methyl)-2,5-dimethyl-1H-indol-3-yl)-N-(2-methoxypyridin-4-yl)-2-oxoacetamide] | < 0.1 µM | < 0.1 µM |
| COc1cc(NC(=O)C(=O)c2c(C)n(Cc3ccc(Cl)cc3)c3ccc(CN(C)C)cc23)ccn1 [Compound 26, 2-(1-(4-chlorobenzyl)-5-((dimethylamino)methyl)-2-methyl-1H-indol-3-yl)-N-(2-methoxypyridin-4-yl)-2-oxoacetamide] | < 0.1 µM | 0.1 to 1 µM |
| C=Cc1ccc2c(c1)c(C(=O)C(=O)Nc1ccnc(OC)c1)c(C)n2Cc1ccc(Cl)cc1 [Compound 27, 2-(1-(4-chlorobenzyl)-2-methyl-5-vinyl-1H-indol-3-yl)-N-(2-methoxypyridin-4-yl)-2-oxoacetamide] | < 0.1 µM | < 0.1 µM |
| CNCc1ccc2c(c1)c(C(=O)C(=O)Nc1ccnc(OC)c1)c(C)n2Cc1ccc(Cl)cc1 [Compound 25, 2-(1-(4-chlorobenzyl)-2-methyl-5-((methylamino)methyl)-1H-indol-3-yl)-N-(2-methoxypyridin-4-yl)-2-oxoacetamide] | 0.1 to 1 µM | 0.1 to 1 µM |
| COc1cc(NC(=O)C(=O)c2c(C)n(Cc3ccc(Cl)cc3)c3ccc(OC)c(F)c23)ccn1 [Compound 59, 2-(1-(4-chlorobenzyl)-4-fluoro-5-methoxy-2-methyl-1H-indol-3-yl)-N-(2-methoxypyridin-4-yl)-2-oxoacetamide] | < 0.1 µM | < 0.1 µM |
| COc1cc(NC(=O)C(=O)c2c(C)n(Cc3ccc(Cl)cc3)c3ccc(N(C)C)cc23)ccn1 [Compound 17, 2-(1-(4-chlorobenzyl)-5-(dimethylamino)-2-methyl-1H-indol-3-yl)-N-(2-methoxypyridin-4-yl)-2-oxoacetamide] | < 0.1 µM | < 0.1 µM |
| COc1cc(NC(=O)C(=O)c2c(C)n(Cc3ccc(Cl)cc3)c3ccc(Br)cc23)ccn1 [Compound 18, 2-(5-bromo-1-(4-chlorobenzyl)-2-methyl-1H-indol-3-yl)-N-(2-methoxypyridin-4-yl)-2-oxoacetamide] | < 0.1 µM | < 0.1 µM |
| COc1cc(NC(=O)C(=O)c2c(C)n(Cc3ncc(Cl)cc3F)c3ccc(C)cc23)ccn1 [Compound 33, 2-(1-((5-chloro-3-fluoropyridin-2-yl)methyl)-2,5-dimethyl-1H-indol-3-yl)-N-(2-methoxypyridin-4-yl)-2-oxoacetamide] | < 0.1 µM | < 0.1 µM |
| COc1cc(NC(=O)C(=O)c2c(C)n(Cc3ccc(Cl)cc3)c3ccc(CO)cc23)ccn1 [Compound 8, 2-(1-(4-chlorobenzyl)-5-(hydroxymethyl)-2-methyl-1H-indol-3-yl)-N-(2-methoxypyridin-4-yl)-2-oxoacetamide] | < 0.1 µM | < 0.1 µM |
| COc1cc(NC(=O)C(=O)c2c(C)n(Cc3ccc(Cl)cc3)c3ccc(N)c(Cl)c23)ccn1 [Compound 73, 2-(5-amino-4-chloro-1-(4-chlorobenzyl)-2-methyl-1H-indol-3-yl)-N-(2-methoxypyridin-4-yl)-2-oxoacetamide] | < 0.1 µM | 0.1 to 1 µM |
| COc1ccc(Cn2c(C)c(C(=O)C(=O)Nc3ccnc(OC)c3)c3cc(OC)c(F)cc32)nc1 [Compound 32, 2-(6-fluoro-5-methoxy-1-((5-methoxypyridin-2-yl)methyl)-2-methyl-1H-indol-3-yl)-N-(2-methoxypyridin-4-yl)-2-oxoacetamide] | < 0.1 µM | < 0.1 µM |
| COc1cc(NC(=O)C(=O)c2c(C)n(Cc3ccc(Cl)cc3)c3ccc(OC(C)=O)cc23)ccn1 [Compound 1, 1-(4-chlorobenzyl)-3-(2-(2-methoxypyridin-4-ylamino)-2-oxoacetyl)-2-methyl-1H-indol-5-yl acetate] | < 0.1 µM | < 0.1 µM |
| COc1cc(NC(=O)C(=O)c2c(C)n(Cc3ccc(Cl)cn3)c3cc(C)c(OC)cc23)ccn1 [Compound 95, 2-(1-((5-chloropyridin-2-yl)methyl)-5-methoxy-2,6-dimethyl-1H-indol-3-yl)-N-(2-methoxypyridin-4-yl)-2-oxoacetamide] | < 0.1 µM | < 0.1 µM |
| COc1ccc2c(c1)c(C(=O)C(=O)Nc1ccnc(O)c1)c(C)n2Cc1ccc(Cl)cc1 [Compound 50, 2-(1-(4-chlorobenzyl)-5-methoxy-2-methyl-1H-indol-3-yl)-N-(2-hydroxypyridin-4-yl)-2-oxoacetamide] | 1 to 10 µM | 1 to 10 µM |
| COc1cc(NC(=O)C(=O)c2c(C)n(Cc3ncc(Cl)cc3Cl)c3ccccc23)ccn1 [Compound 31, 2-(1-((3,5-dichloropyridin-2-yl)methyl)-2-methyl-1H-indol-3-yl)-N-(2-methoxypyridin-4-yl)-2-oxoacetamide] | < 0.1 µM | < 0.1 µM |
| COc1cc(NC(=O)C(=O)c2c(C)n(Cc3ccc(F)cc3F)c3cc(F)c(OC)cc23)ccn1 [Compound 14, 2-(1-(2,4-difluorobenzyl)-6-fluoro-5-methoxy-2-methyl-1H-indol-3-yl)-N-(2-methoxypyridin-4-yl)-2-oxoacetamide] | < 0.1 µM | < 0.1 µM |
| COc1ccc2c(c1)c(C(=O)C(=O)Nc1ccnc(OC)c1)c(C)n2Cc1ncc(Cl)cc1OC [Compound 100, 2-(1-((5-chloro-3-methoxypyridin-2-yl)methyl)-5-methoxy-2-methyl-1H-indol-3-yl)-N-(2-methoxypyridin-4-yl)-2-oxoacetamide] | < 0.1 µM | 0.1 to 1 µM |
| COc1cc(NC(=O)C(=O)c2c(C)n(Cc3ncc(F)cc3F)c3cc(F)c(OC)cc23)ccn1 [Compound 101, 2-(1-((3,5-difluoropyridin-2-yl)methyl)-6-fluoro-5-methoxy-2-methyl-1H-indol-3-yl)-N-(2-methoxypyridin-4-yl)-2-oxoacetamide] | < 0.1 µM | < 0.1 µM |
| COc1cc(NC(=O)C(=O)c2c(C)n(Cc3ccc(Cl)cc3)c3ccc(NC(C)=O)cc23)ccn1 [Compound 22, 2-(5-acetamido-1-(4-chlorobenzyl)-2-methyl-1H-indol-3-yl)-N-(2-methoxypyridin-4-yl)-2-oxoacetamide] | < 0.1 µM | < 0.1 µM |
| COc1cc(NC(=O)C(=O)c2c(C)n(Cc3ccc(Cl)cn3)c3cc(OC)c(Cl)cc23)ccn1 [Compound 67, 2-(5-chloro-1-((5-chloropyridin-2-yl)methyl)-6-methoxy-2-methyl-1H-indol-3-yl)-N-(2-methoxypyridin-4-yl)-2-oxoacetamide] | < 0.1 µM | < 0.1 µM |
